Measured values from ChEMBL document CHEMBL6127079, “Design and synthesis of spiro[pyrrolidine-3,3'-quinoline]-2,2'-dione derivatives as novel antifungal agents targeting chitin synthase” (Eur J Med Chem, 2024).
≈ marks a conversion by molar mass, not a printed value. Calls of active or inactive are those of the source. No cut-off for these calls is given here.

Tests used:
[1] = test system: Cryptococcus neoformans; assay: Antifungal activity against Cryptococcus neoformans ATCC 32719 assessed as Polyoxin B MIC incubated for 24 hrs in presence of fluconazole by half broth dilution based checkerboard method; type: functional
[2] = test system: Cryptococcus neoformans; assay: Antifungal activity against Cryptococcus neoformans ATCC 32719 assessed as fluconazole MIC incubated for 24 hrs in presence of fluconazole by half broth dilution based checkerboard method; type: functional
[3] = test system: Cryptococcus neoformans; assay: Antifungal activity against drug-resistant Cryptococcus neoformans ATCC 32719 assessed as inhibition of cell wall synthesis in presence of sorbitol incubated for 24 hrs; type: functional
[4] = test system: Candida albicans; assay: Antifungal activity against micafungin-resistant Candida albicans ATCC 76615 assessed as inhibition of fungal growth incubated for 24 to 72 hrs; type: functional; conditions: time 24-72 hrs
[5] = test system: Aspergillus fumigatus; assay: Antifungal activity against Aspergillus fumigatus GIMCC 3.19 assessed as inhibition of growth incubated for 24 hrs by two-fold serial dilution method; type: functional
[6] = test system: A549; assay: Cytotoxicity against human A549 cells assessed as reduction in cell viability at 4 microg/ml incubated for 24 hrs by CCK-8 assay relative to control; type: toxicity, cell-based; conditions: a549, 24 h, at 4 µg/mL
[7] = test system: Aspergillus fumigatus; assay: Antifungal activity against drug-resistant Aspergillus fumigatus GIMCC 3.19 assessed as inhibition of cell wall synthesis in presence of sorbitol incubated for 24 hrs; type: functional
[8] = test system: Candida albicans; assay: Antifungal activity against Candida albicans ATCC 76615 assessed as Polyoxin B MIC incubated for 24 hrs in presence of fluconazole by half broth dilution based checkerboard method; type: functional
[9] = test system: Aspergillus fumigatus; assay: Antifungal activity against Aspergillus fumigatus GIMCC 3.19 incubated for 24 hrs by half broth dilution based checkerboard method; type: functional
[10] = test system: Cryptococcus neoformans; assay: Antifungal activity against Cryptococcus neoformans ATCC 32719 assessed as inhibition of growth incubated for 24 hrs by two-fold serial dilution method; type: functional
[11] = test system: Aspergillus flavus; assay: Antifungal activity against Aspergillus flavus ATCC 16870 incubated for 24 hrs by half broth dilution based checkerboard method; type: functional
[12] = test system: Candida albicans; assay: Antifungal activity against Candida albicans ATCC 76615 assessed as inhibition of growth incubated for 24 hrs by two-fold serial dilution method; type: functional
[13] = test system: Candida albicans; assay: Antifungal activity against fluconazole-resistant Candida albicans ATCC 76615 assessed as inhibition of fungal growth incubated for 24 to 72 hrs; type: functional; conditions: time 24-72 hrs
[14] = test system: Aspergillus fumigatus; assay: Synergistic antifungal activity against Aspergillus fumigatus GIMCC 3.19 assessed as fractional inhibitory concentration index in presence of fluconazole incubated for 24 hrs by half broth dilution based checkerboard method; type: functional
[15] = test system: Candida tropicalis; assay: Non-competitive inhibition of chitin synthase extracted from Candida tropicalis ATCC 750 using UDP-GlcNAc as substrate assessed as decrease in Vm with constant Km at 0 to 0.15 mM by Lineweaver-Burk plot analysis; conditions: dose 0-0.15 mM
[16] = test system: Cryptococcus neoformans; assay: Synergistic antifungal activity against Cryptococcus neoformans ATCC 32719 assessed as fractional inhibitory concentration index in presence of Polyoxin B incubated for 24 hrs by half broth dilution based checkerboard method; type: functional
[17] = test system: Aspergillus flavus; assay: Antifungal activity against Aspergillus flavus ATCC 16870 assessed as inhibition of growth incubated for 24 hrs by two-fold serial dilution method; type: functional
[18] = test system: Candida albicans; assay: Antifungal activity against drug-resistant Candida albicans ATCC 76615 assessed as inhibition of cell wall synthesis in presence of sorbitol incubated for 24 hrs; type: functional
[19] = test system: Aspergillus flavus; assay: Antifungal activity against Aspergillus flavus ATCC 16870 assessed as fluconazole MIC incubated for 24 hrs in presence of fluconazole by half broth dilution based checkerboard method; type: functional
[20] = test system: Aspergillus fumigatus; assay: Antifungal activity against fluconazole-resistant Aspergillus fumigatus GIMCC 3.19 assessed as inhibition of fungal growth incubated for 24 to 72 hrs; type: functional; conditions: time 24-72 hrs
[21] = test system: Candida tropicalis; assay: Inhibition of chitin synthase extracted from Candida tropicalis ATCC 750 using UDP-GlcNAc as substrate assessed as inhibition rate at 300 ug/ml by TMB based microplate analyzer relative to control; conditions: dose 300.0 µg/ml
[22] = test system: Aspergillus flavus; assay: Antifungal activity against Aspergillus flavus ATCC 16870 assessed as Polyoxin B MIC incubated for 24 hrs in presence of fluconazole by half broth dilution based checkerboard method; type: functional
[23] = test system: Aspergillus flavus; assay: Synergistic antifungal activity against Aspergillus flavus ATCC 16870 assessed as fractional inhibitory concentration index in presence of Polyoxin B incubated for 24 hrs by half broth dilution based checkerboard method; type: functional
[24] = test system: Candida albicans; assay: Synergistic antifungal activity against Candida albicans ATCC 76615 assessed as fractional inhibitory concentration index in presence of fluconazole incubated for 24 hrs by half broth dilution based checkerboard method; type: functional
[25] = test system: Cryptococcus neoformans; assay: Antifungal activity against fluconazole-resistant Cryptococcus neoformans ATCC 32719 assessed as inhibition of fungal growth incubated for 24 to 72 hrs; type: functional; conditions: time 24-72 hrs
[26] = test system: Candida albicans; assay: Synergistic antifungal activity against Candida albicans ATCC 76615 assessed as fractional inhibitory concentration index in presence of Polyoxin B incubated for 24 hrs by half broth dilution based checkerboard method; type: functional
[27] = test system: Aspergillus flavus; assay: Antifungal activity against drug-resistant Aspergillus flavus ATCC 16870 assessed as inhibition of cell wall synthesis in presence of sorbitol incubated for 24 hrs; type: functional
[28] = test system: Aspergillus fumigatus; assay: Synergistic antifungal activity against Aspergillus fumigatus GIMCC 3.19 assessed as fractional inhibitory concentration index in presence of Polyoxin B incubated for 24 hrs by half broth dilution based checkerboard method; type: functional
[29] = test system: Aspergillus flavus; assay: Synergistic antifungal activity against Aspergillus flavus ATCC 16870 assessed as fractional inhibitory concentration index in presence of fluconazole incubated for 24 hrs by half broth dilution based checkerboard method; type: functional
[30] = test system: Cryptococcus neoformans; assay: Antifungal activity against Cryptococcus neoformans ATCC 32719 incubated for 24 hrs by half broth dilution based checkerboard method; type: functional
[31] = test system: Cryptococcus neoformans; assay: Synergistic antifungal activity against Cryptococcus neoformans ATCC 32719 assessed as fractional inhibitory concentration index in presence of fluconazole incubated for 24 hrs by half broth dilution based checkerboard method; type: functional
[32] = test system: Aspergillus fumigatus; assay: Antifungal activity against Aspergillus fumigatus GIMCC 3.19 assessed as Polyoxin B MIC incubated for 24 hrs in presence of fluconazole by half broth dilution based checkerboard method; type: functional
[33] = test system: A549; assay: Cytotoxicity against human A549 cells assessed as reduction in cell viability at 128 microg/ml incubated for 24 hrs by CCK-8 assay relative to control; type: toxicity, cell-based; conditions: a549, 24 h, at 128 µg/mL
[34] = test system: Candida albicans; assay: Antifungal activity against Candida albicans ATCC 76615 assessed as fluconazole MIC incubated for 24 hrs in presence of fluconazole by half broth dilution based checkerboard method; type: functional
[35] = test system: A549; assay: Cytotoxicity against human A549 cells assessed as reduction in cell viability at 16 microg/ml incubated for 24 hrs by CCK-8 assay relative to control; type: toxicity, cell-based; conditions: a549, 24 h, at 16 µg/mL
[36] = test system: Aspergillus flavus; assay: Antifungal activity against fluconazole-resistant Aspergillus flavus ATCC 16870 assessed as inhibition of fungal growth incubated for 24 to 72 hrs; type: functional; conditions: time 24-72 hrs
[37] = test system: A549; assay: Cytotoxicity against human A549 cells assessed as reduction in cell viability at 64 microg/ml incubated for 24 hrs by CCK-8 assay relative to control; type: toxicity, cell-based; conditions: a549, 24 h, at 64 µg/mL
[38] = test system: Aspergillus fumigatus; assay: Antifungal activity against Aspergillus fumigatus GIMCC 3.19 assessed as fluconazole MIC incubated for 24 hrs in presence of fluconazole by half broth dilution based checkerboard method; type: functional
[39] = test system: A549; assay: Cytotoxicity against human A549 cells assessed as reduction in cell viability at 8 microg/ml incubated for 24 hrs by CCK-8 assay relative to control; type: toxicity, cell-based; conditions: a549, 24 h, at 8 µg/mL
[40] = Inhibition of chitin synthase extracted from Candida tropicalis ATCC 750 using UDP-GlcNAc as substrate assessed as inhibition rate by TMB based microplate analyzer relative to control
[41] = Non-competitive inhibition of chitin synthase extracted from Candida tropicalis ATCC 750 using UDP-GlcNAc as substrate assessed as inhibition constant by Lineweaver-Burk plot analysis
[42] = test system: Candida albicans; assay: Antifungal activity against Candida albicans ATCC 76615 incubated for 24 hrs by half broth dilution based checkerboard method; type: functional
[43] = test system: A549; assay: Cytotoxicity against human A549 cells assessed as reduction in cell viability at 32 microg/ml incubated for 24 hrs by CCK-8 assay relative to control; type: toxicity, cell-based; conditions: a549, 24 h, at 32 µg/mL

Which results are given for O=C(/C=C/C(=O)Nc1nc2ccccc2s1)Nc1ccc2c(c1)NC(=O)C1(CCNC1=O)C2 (racemic)?
MIC [1]: 4 µg/mL; MIC [2]: 4 µg/mL; MIC [3]: 64 µg/mL; MIC [4]: 64 µg/mL (≈ 139 µM); MIC [5]: 4 µg/mL (≈ 8.67 µM); Activity [6]: 93.5%; MIC [7]: 64 µg/mL; MIC [8]: 2 µg/mL; MIC [9]: 2 µg/mL; MIC [10]: 4 µg/mL (≈ 8.67 µM); MIC [11]: 4 µg/mL; MIC [12]: 8 µg/mL (≈ 17.3 µM); MIC [13]: 64 µg/mL (≈ 139 µM); fractional inhibitory concentration index (FICI) [14]: 1.5; inhibition [15]: Active; fractional inhibitory concentration index (FICI) [16]: 1; MIC [17]: 16 µg/mL (≈ 34.7 µM); MIC [18]: 128 µg/mL; MIC [19]: 2 µg/mL; MIC [20]: 32 µg/mL (≈ 69.3 µM); inhibition [21]: 82.5%; MIC [22]: 8 µg/mL; fractional inhibitory concentration index (FICI) [23]: 0.75; fractional inhibitory concentration index (FICI) [24]: 0.5; MIC [25]: 64 µg/mL (≈ 139 µM); fractional inhibitory concentration index (FICI) [26]: 0.5; MIC [27]: 128 µg/mL; fractional inhibitory concentration index (FICI) [28]: 1.5; fractional inhibitory concentration index (FICI) [29]: 0.75; MIC [30]: 2 µg/mL; fractional inhibitory concentration index (FICI) [31]: 1; MIC [32]: 2 µg/mL; Activity [33]: 68.4%; MIC [34]: 2 µg/mL; Activity [35]: 91.1%; MIC [36]: 32 µg/mL (≈ 69.3 µM); Activity [37]: 79.1%; MIC [38]: 4 µg/mL; Activity [39]: 90.5%; IC50 [40]: 104 µM; Ki [41]: 114 µM; MIC [42]: 2 µg/mL; Activity [43]: 87.9%

What does the source list for Cc1cc([N+](=O)[O-])ccc1NC(=O)C1CCN(CC(=O)Nc2ccc3c(c2)NC(=O)C2(CCNC2=O)C3)CC1 (racemic)?
MIC [1]: 8 µg/mL; MIC [2]: 1.5 µg/mL; MIC [3]: 512 µg/mL; MIC [4]: 64 µg/mL (≈ 120 µM); MIC [5]: 16 µg/mL (≈ 29.9 µM); Activity [6]: 97.1%; MIC [7]: 128 µg/mL; MIC [8]: 8 µg/mL; MIC [9]: 16 µg/mL; MIC [10]: 8 µg/mL (≈ 15 µM); MIC [11]: 16 µg/mL; MIC [12]: 8 µg/mL (≈ 15 µM); MIC [13]: 64 µg/mL (≈ 120 µM); fractional inhibitory concentration index (FICI) [14]: 2; inhibition [15]: Active; fractional inhibitory concentration index (FICI) [16]: 1.5; MIC [17]: 16 µg/mL (≈ 29.9 µM); MIC [18]: 256 µg/mL; MIC [19]: 0.625 µg/mL; MIC [20]: 32 µg/mL (≈ 59.9 µM); inhibition [21]: 85.2%; MIC [22]: 16 µg/mL; fractional inhibitory concentration index (FICI) [23]: 0.75; fractional inhibitory concentration index (FICI) [24]: 1; MIC [25]: 64 µg/mL (≈ 120 µM); fractional inhibitory concentration index (FICI) [26]: 0.625; MIC [27]: 256 µg/mL; fractional inhibitory concentration index (FICI) [28]: 2; fractional inhibitory concentration index (FICI) [29]: 1.5; MIC [30]: 8 µg/mL; fractional inhibitory concentration index (FICI) [31]: 0.75; MIC [32]: 16 µg/mL; Activity [33]: 73.5%; MIC [34]: 1.25 µg/mL; Activity [35]: 92.2%; MIC [36]: 32 µg/mL (≈ 59.9 µM); Activity [37]: 87.6%; MIC [38]: 0.75 µg/mL; Activity [39]: 93.8%; IC50 [40]: 93 µM; Ki [41]: 108 µM; MIC [42]: 8 µg/mL; Activity [43]: 91.9%

Which results are given for NC(=O)OC[C@H](O)[C@@H](O)[C@H](N)C(=O)N[C@H](C(=O)O)[C@H]1O[C@@H](n2cc(CO)c(=O)[nH]c2=O)[C@H](O)[C@@H]1O [POLYOXIN B]?
MIC [3]: 256 µg/mL; MIC [5]: 8 µg/mL (≈ 15.8 µM); Activity [6]: 99.2%; MIC [7]: 128 µg/mL; MIC [9]: 8 µg/mL; MIC [10]: 16 µg/mL (≈ 31.5 µM); MIC [11]: 16 µg/mL; MIC [12]: 16 µg/mL (≈ 31.5 µM); MIC [17]: 16 µg/mL (≈ 31.5 µM); inhibition [21]: 86.4%; MIC [27]: 512 µg/mL; MIC [30]: 16 µg/mL; Activity [33]: 84.3%; Activity [35]: 97.9%; Activity [37]: 91.2%; Activity [39]: 98.8%; IC50 [40]: 82 µM; MIC [42]: 16 µg/mL; Activity [43]: 92.7%
